Test results as given in a melting point compilation (Tetko et al.; mined from patent text by program, amines drawn as free bases though some values may be those of a salt).

| SMILES | melting point [°C] |
| --- | --- |
| CC(=O)Oc1cc(S(=O)(=O)Oc2ccc(C(=O)c3c(Cc4ccccc4)sc(C)c3C)cc2C2CCCC2)ccc1C(=O)O | 94 to 96 |
| O=C(C=Cc1ccccc1)c1cc(Cl)ccc1O | 142 to 145 |
| Brc1cnc2c(c1)ncn2-c1cccc(CN2CCOCC2)c1 | 176 to 178 |
| CNc1c(Cl)cc(C(=O)NCC2CCN(CCCOC)CC2)c2nccn12 | 125 |
| CCN1CCN(C(=O)Cc2ccc(I)cc2)CC1 | 81 to 83 |
| CCCn1c(=O)c(C=O)c2n(c1=O)CCCS2 | 153 to 154 |
| O=C(C(=O)c1ccc(F)c(Br)c1)c1ccc(OCCF)cc1 | 107 |
| O=C1CCOc2ccc([N+](=O)[O-])cc21 | 171 to 173 |
| O=C(NNc1ccc([N+](=O)[O-])cc1)c1ccc(Cl)cc1 | 246 to 248 |
| N#CC1(C(O)(Cn2cncn2)c2ccc(Cl)cc2)CC1 (centres undefined) | 107 |
| Fc1ccccc1N1CCN(c2ccc(Cl)nn2)CC1 | 148 |
| O=c1oc(-c2ccc(OCC3CCCCC3)cc2)cc(O)c1SCCc1ccccc1 | 130 to 132 |
| O=C(O)c1oc2ccc(Cl)cc2c1-c1ccccc1C(F)(F)F | 71 to 72 |
| O=C(Nc1cc(S(=O)(=O)N2CCC(O)C2)sc1Cl)c1cnn2c(C(F)F)cc(-c3ccc(C(F)(F)F)cc3)nc12 (racemic) | 274 |
| Cc1cccc(CCCCCCCCC(=O)O)c1 | 39 to 40 |
| Cc1cc(-n2ccnc2)c2cccc(OCc3c(Cl)ccc(S(=O)(=O)N4CCC[C@H]4C(=O)NCCCN4CCOCC4)c3Cl)c2n1 | 96 |
| O=C1NC(O)C2=C1CN=C(c1ccccc1Cl)c1cc(Cl)ccc12 (centres undefined) | 247 to 249 |
| N#Cc1cnn(-c2ccc(Cl)c(Cl)c2Cl)c1NC(=O)CCCCl | 173 to 174 |
| CN(C)C=C(C(=O)c1ccccc1)c1ccc(F)cc1 | 115 to 116 |
| CC(C)n1nc(-c2c(-c3ccccc3)nn3ccc(OCc4ccccn4)cc23)ccc1=O | 150 to 151 |
| COC1CC(C)(OCc2ccccc2)C2COC1O2 (centres undefined) | 45 to 46 |
| CC1(C)Oc2ccc(C#N)cc2C(c2cccn(Cc3ccccc3)c2=O)C1O (centres undefined) | 120 to 122 |
| Cc1cc(Cl)ccc1N1CCCN(CC(C)C)C1=S | 88 to 90 |
| O=C1NC(=O)c2cc(Nc3ccc(O)c(O)c3)c(Nc3ccccc3)cc21 | 204 to 205 |
| CCCCCC(=O)NC(=O)N1CC1C#N (centres undefined) | 143 to 144 |
| CN(C)c1ccc(NC(=O)Cn2c(-c3ccc(Br)cc3)nc3cccnc32)cc1 | 248 to 250 |
| O=C1c2ccccc2-c2cc(O)cc3cccc1c23 | 297 to 298 |
| NCC1COc2cc(F)cc(-c3ccccc3Cl)c2N1 (centres undefined) | 86 |

| SMILES | melting point [°C] |
| --- | --- |
| C=C(Cl)CC(C#N)(C#N)Cc1ccc(Cl)cc1 | 85.5 |
| CCCC(=O)C(=O)NCC(=O)c1cccnc1 | 80 to 82 |
| O=S(=O)(CCCCCOc1ccc(C2=C(c3ccc(O)cc3)CCCc3cc(O)ccc32)cc1)CCCC(F)(F)C(F)(F)F | 168 to 170 |
| NC1Cc2ccccc2N(C(=O)c2ccc(NC(=O)c3cc(Cl)cc(Cl)c3)cc2)C1 (centres undefined) | 207 to 210 |
| Oc1ccccc1C=NNc1nc(C(Cl)(Cl)Cl)ns1 | 204 to 205 |
| O=C(c1c[nH]c2cc(O)ccc12)C1CSC(c2cccnc2)N1 (centres undefined) | 203 to 205 |
| O=C1N(Cc2cnc(O)nc2)c2ccccc2C12COc1cc3c(cc12)OCCO3 (centres undefined) | > 250 |
| CCc1cc(CCc2nc3ccccc3o2)c(=O)[nH]c1COCc1ccccc1 | 140 to 142 |
| Cc1cc(-c2coc3c(-c4ccc(F)cc4)c(-c4ccc(S(C)(=O)=O)cc4)nn23)ccc1Cl | 202 to 205 |
| Fc1ccc(-c2ccc3[nH]ccc3c2)cc1 | 71 to 74 |
| Cn1cnc2nc(-c3ccc(-c4ccccc4)cc3)nn2c1=S | 297 to 299 |
| COC(=O)c1cc(-n2cnnc2)c(C(F)(F)F)cc1NC(C)=O | 180 to 184 |
| CS(=O)(=O)c1ccc(C(CC2CCCC2)C(=O)Nc2nc3ccccc3s2)cc1C#N (centres undefined) | 115 to 118 |
| OC1(CSc2ccc(-c3ccccc3)cc2)CN2CCC1CC2 (centres undefined) | 145 to 147 |
| CN1C(=O)CC2(CC1=O)c1ccccc1Oc1ccccc12 | 148 to 149 |
| Cc1ccc(-c2cc(C(=O)O)nn2Cc2ccc(C)c(Cl)c2)cc1C | 163 |
| Oc1ccc(-n2ccc(Nc3ccccc3)n2)cc1 | 182 to 185 |
| COc1cc(-c2nc3ccc(OCCCN4CCCCC4)cc3n2Cc2ccccc2C(F)(F)F)cc(OC)c1OC | 138 |
| CN(CCCNC(=O)c1cccc2nc3ccc(Cl)cc3nc12)CCCNC(=O)c1cccc2nc3ccc(Cl)cc3nc12 | 210 to 212 |
| Cc1cc(Cl)ccc1NC(=N)Nc1ncccc1OCc1c(F)cccc1Cl | 155 to 156 |
| FC(F)(F)c1cc(NCc2ccsc2)cc(C(F)(F)F)c1Br | 78 to 79 |
| NC1Cc2cccc3c2C(C1)CN3C(=O)c1ccccc1 (centres undefined) | 118 to 120 |
| Cc1c(Nc2c(C#N)cnc3sc(C4=CCN(S(C)(=O)=O)CC4)cc23)ccc2[nH]ccc12 | 228 |
| Cc1ccc(OCC2CN=C(N)O2)c(C)c1 (centres undefined) | 116 |
| COC1(OCC#Cc2ccc(Cl)nc2)C=CC=NC1 (centres undefined) | 100 to 101 |
| Cc1cc(=O)c(O)c(C(C)O)o1 (centres undefined) | 127 to 130 |
| CN(C)CCCOc1ccc(/C=C/C(=O)O)cc1 | 191 to 193 |

Results, then the compound that gave them:

| melting point [°C] | SMILES |
| --- | --- |
| 47 to 48 | CC(=O)OCc1cc(C(C)=O)ccc1OC(C)=O |
| 140 | COc1ccc2c(c1)C(c1ccccc1)=Nn1c(C)cnc1C2 |
| 128 to 129 | CCOC(=O)Cn1c(=S)c2ccccc2n(Cc2ccc(Cl)c(Cl)c2)c1=O |
| 177 to 178 | COc1ccc(C(=O)NCCCCCCNC(=O)c2ccc(OC)cc2)cc1 |
| > 300 | O=c1[nH]c(=O)c2cc(Oc3ccc(F)cc3F)ncc2[nH]1 |
| 100 to 105 | CC(C)(C)OC(=O)N1CCc2c(cc(O)c(O)c2F)C(c2ccc(O)cc2)C1 (centres undefined) |
| 233 to 235 | O=C(Cn1c(=O)[nH]c2ccccc21)c1c(-c2ccccc2)nc2ccccn12 |
| 185 to 187 | CC(C)(C)C(=O)C(Cl)C(=O)Nc1cc(OC(=O)c2cc(C(C)(C)C)c(O)c(C(C)(C)C)c2)ccc1Cl (centres undefined) |
| 166 to 168 | Cn1c2c(ccc1=O)C(C)(N)CCC2 (centres undefined) |
| 92 to 93 | CC(C)c1nn(-c2ccc(C(F)(F)F)cc2)cc1COc1cccc(CC(=O)O)c1 |
| 108 to 109 | Cc1ccccc1-c1ccc2ccccc2c1C(=O)N(C)C |
| 206 to 207 | COc1c(NC(=O)Nc2ccc(-c3ccc(CN4CCOCC4)nc3)c3ccccc23)cc(C(C)(C)C)cc1NS(=O)(=O)c1ccccc1 |
| 145 to 147 | COc1ccc2c(c1)OCC1CN(C(=O)c3cccnc3)N=C21 (centres undefined) |
| 120 to 124 | CCc1ccc2c(c1)C1CN(C(=O)CCC(=O)c3ccc(F)cc3)CCC1N2 (centres undefined) |
| 201 to 202 | COc1ccc(OC)c2c(=O)c3ccccc3sc12 |
| 120 to 124 | COC(=O)C(=O)NCC(C#Cc1ccccc1)c1ccc(OC)c(OC2CCCC2)c1 (racemic) |
| 119 to 121 | Cc1nc2cccc(OCc3ccccc3)c2[nH]1 |
| 123 to 124 | CCOC(=O)/C=C/c1ccc(C=Cc2nc(-c3ccco3)oc2C)cc1 |
| 176 to 179 | CCOC(=O)c1cn(CC)c2cc(N3CCN(C)CC3)c(F)cc2c1=O |
| 160 | Cc1ccc(S(=O)(=O)N2[C@@H](c3ncn(C)n3)CC[C@H]2c2ccc(F)cc2)cc1 (racemic) |
| 135 to 137 | Cc1ccc(C(=O)Nc2c[nH]nc2C(=O)NCCC#N)o1 |
| 130 to 131 | O=C1c2ccccc2C(=O)N1Cc1ccc(Br)nc1 |

| melting point [°C] | SMILES |
| --- | --- |
| 144 to 145 | CCOC(=O)C(C)(C)n1c(=O)[nH]c2c(OC)cccc2c1=O |
| 118 to 119 | CCCc1c(OCC(O)CS(=O)(=O)c2ccc(CC(=O)OC)c(F)c2)ccc(C(C)=O)c1O (centres undefined) |
| 211 | CCOCc1nc2c(N)nc3cc(Br)ccc3c2n1CCCCNC(=O)NC(C)C |
| 189 to 190 | CCOC(=O)CCC(CC(=O)c1ccc(NCc2ccc3ccc4nc(C)[nH]c(=O)c4c3c2)cc1)C(=O)OCC (racemic) |
| 229 to 231 | O=C(O)Cn1c(-c2ccc(Br)o2)nc2cccnc21 |
| 88 to 90 | COC(=O)COc1cccc2c(CCN=[N+]=[N-])c(C)oc12 |
| 226 to 228 | Cc1c2c(nn1CCO)c(N)nc1ccccc12 |
| 254 to 256 | O=C(O)c1cnc(Nc2ccccc2O)[nH]c1=O |
| 137 to 138 | CCOC(=O)Cc1c(C)nc2c3cccc(Cl)c3ccn12 |
| 132 to 134 | Cc1nnc(OC(=O)NC(C)(C)C)n1-c1ccc(Cl)cn1 |
| 200 to 201 | CC1=NC(=CC(=CN(C)C)c2ccc(C)cc2[N+](=O)[O-])C(=O)O1 |
| 102 to 104 | O=C(Oc1ccccc1)c1cc(Cl)c2ccccc2c1O |
| 104 | CC(C)(C)C1c2ccccc2CCC1O (centres undefined) |
| 247 | O=C(O)c1oc(-c2ccccc2)cc(=O)c1Br |
| 270 | O=c1[nH]ncc2c1c(O)nc1ccc(Cl)c(Cl)c12 |
| 102 to 103 | O=[N+]([O-])c1ccc(OS(=O)(=O)C(F)(F)F)c2oc3ccccc3c12 |
| 231 | CC(C)(C)OC(=O)c1ccc(NC2CCc3cc4nc(COC(=O)C(C)(C)C)[nH]c(=O)c4cc32)cc1 (racemic) |
| 42 to 57 | CC(C(=O)Oc1cc(=O)n(-c2cccc(C(F)(F)F)c2)c2ncccc12)c1ccccc1 (centres undefined) |
| 194 to 196 | COc1ccc(CNc2nc(OCc3ccccn3)ncc2C(=O)c2cc(OC)c(OC)c(OC)c2)cc1NC(C)=O |
| 184 to 185 | CC(=O)N1CCCC(=O)c2ccc(Cl)cc2C(c2ccccc2)CC1=O (centres undefined) |
| 199 to 201 | COc1cccc(C=C2NC(=O)NC2=O)c1OCCc1ccccc1 |
| 57 to 59 | CCc1ccc(N)c(C(=O)c2ccccc2)c1 |
